# pIC50: −log10 of the molar value.
# Key:
# CYP3A4 = CYP3A4 (Homo sapiens, UniProt P08684); assay: Inhibition of CYP3A4 in human liver microsomes at 10 uM using midazolam as substrate preincubated for 5 mins followed by NADPH addition and measured after 20 mins by LC-MS/MS analysis relative to control; assay type: ADME; details: probe midazolam, time 25 min
# [1] = target: Heat shock protein HSP 90-alpha (Homo sapiens, UniProt P07900); assay: Displacement of FITC-geldanamycin from N-terminal HSP90alpha (unknown origin) after 30 mins by fluorescence polarization competitive binding assay
# [2] = Permeability of the compound at pH 7.4 by PAMPA; assay type: ADME; details: read-out: permeability
# Endoplasmin = Endoplasmin (Homo sapiens, UniProt P14625); assay: Displacement of FITC-geldanamycin from N-terminal GRP94 (unknown origin) after 30 mins by fluorescence polarization competitive binding assay
# Chain of Endoplasmin (P14625 whole entry): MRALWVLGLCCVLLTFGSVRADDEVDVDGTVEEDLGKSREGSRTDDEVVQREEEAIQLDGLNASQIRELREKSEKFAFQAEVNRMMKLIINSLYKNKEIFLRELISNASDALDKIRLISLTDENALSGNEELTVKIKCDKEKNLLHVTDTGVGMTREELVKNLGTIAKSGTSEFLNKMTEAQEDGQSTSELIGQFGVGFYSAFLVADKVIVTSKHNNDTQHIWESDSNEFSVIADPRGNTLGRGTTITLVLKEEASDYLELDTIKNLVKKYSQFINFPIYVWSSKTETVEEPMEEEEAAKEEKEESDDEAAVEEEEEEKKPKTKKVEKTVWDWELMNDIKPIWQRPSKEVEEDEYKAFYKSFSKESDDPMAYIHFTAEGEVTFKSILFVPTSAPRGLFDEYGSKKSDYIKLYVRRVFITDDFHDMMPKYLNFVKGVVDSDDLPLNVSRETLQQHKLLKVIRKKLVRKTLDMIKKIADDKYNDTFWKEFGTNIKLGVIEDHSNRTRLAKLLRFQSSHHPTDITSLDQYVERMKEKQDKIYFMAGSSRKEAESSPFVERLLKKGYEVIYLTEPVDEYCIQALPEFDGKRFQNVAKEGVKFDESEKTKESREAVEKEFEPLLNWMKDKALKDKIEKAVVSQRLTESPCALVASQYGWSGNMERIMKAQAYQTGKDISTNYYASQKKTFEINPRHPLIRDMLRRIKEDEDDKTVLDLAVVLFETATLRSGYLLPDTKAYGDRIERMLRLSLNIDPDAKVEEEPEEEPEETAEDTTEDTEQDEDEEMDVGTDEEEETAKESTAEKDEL
# [3] = Selectivity ratio of IC50 for inhibition of FITC-geldanamycin binding to N-terminal GRP94 (unknown origin) to IC50 for inhibition of FITC-geldanamycin binding to N-terminal HSP90alpha (unknown origin)
# MDA-MB-231 = assay: Antiproliferative activity against human MDA-MB-231 assessed as reduction in cell viability incubated for 72 hrs by MTT assay; assay type: functional, cell-based; details: MDA-MB-231, 72 h
# MDA-MB-468 = assay: Antiproliferative activity against human MDA-MB-468 assessed as reduction in cell viability incubated for 72 hrs by MTT assay; assay type: functional, cell-based; details: MDA-MB-468, 72 h
# SK-BR-3 = assay: Antiproliferative activity against human SK-BR-3 assessed as reduction in cell viability incubated for 72 hrs by MTT assay; assay type: functional, cell-based; details: SK-BR-3, 72 h
# T47D = assay: Antiproliferative activity against human T47D assessed as reduction in cell viability incubated for 72 hrs by MTT assay; assay type: functional, cell-based
# BT-474 = assay: Antiproliferative activity against human BT-474 assessed as reduction in cell viability incubated for 72 hrs by MTT assay; assay type: functional, cell-based; details: BT-474, 72 h
# U2OS = assay: Antiproliferative activity against human U2OS assessed as reduction in cell viability incubated for 72 hrs by MTT assay; assay type: functional, cell-based
# MKN-28 = assay: Antiproliferative activity against human MKN-28 assessed as reduction in cell viability incubated for 72 hrs by MTT assay; assay type: functional, cell-based; details: MKN-28, 72 h
# A549 = assay: Antiproliferative activity against human A549 assessed as reduction in cell viability incubated for 72 hrs by MTT assay; assay type: functional, cell-based; details: A549, 72 h
# HepG2 = assay: Antiproliferative activity against human HepG2 assessed as reduction in cell viability incubated for 72 hrs by MTT assay; assay type: functional, cell-based; details: HepG2, 72 h
# K562 = assay: Antiproliferative activity against human K562 assessed as reduction in cell viability incubated for 72 hrs by MTT assay; assay type: functional, cell-based; details: K562, 72 h
# MV4-11 = assay: Antiproliferative activity against human MV4-11 assessed as reduction in cell viability incubated for 72 hrs by MTT assay; assay type: functional, cell-based; details: MV4-11, 72 h
# L02 = assay: Cytotoxicity against human L02 cells assessed as reduction in cell viability incubated for 72 hrs by MTT assay; assay type: cell-based; details: L02, 72 h
# HCT-116 [4] = assay: Antitumor activity against human HCT-116 cells xenografted in nude mouse assessed as reduction in relative tumor volume by measuring T/C ratio at 60 mg/kg, ip administered every other day for 16 days and monitored every 3 days; assay type: functional; details: time 16 day
# HCT-116 [5] = assay: cells; details: Homo sapiens, HCT-116, 72 h
# Description: Antiproliferative activity against human HCT-116 cells assessed as reduction in cell viability incubated for 72 hrs by MTT assay
# MCF7 = assay: cells; details: Homo sapiens, MCF7, 72 h
# [6] = Distribution coefficient, logD of compound at pH 7.4; assay type: physicochemical; details: octanol/water
# [7] = Intrinsic aqueous solubility of the compound; assay type: physicochemical
# [8] = target: T1, Heat shock protein HSP90 (Homo sapiens) (UniProt P07900+P08238); assay: Inhibition of HSP90 in human HCT-116 cells assessed as reduction in AKT protein expression after 24 hrs by Western blot analysis; assay type: cell-based; details: dose 0.01-3 µM
# [9] = target: T1, Heat shock protein HSP90 (Homo sapiens); assay: Inhibition of HSP90 in human HCT-116 cells assessed as reduction in Erk protein expression after 24 hrs by Western blot analysis; assay type: cell-based; details: dose 0.01-3 µM
# [10] = target: T1, Heat shock protein HSP90 (Homo sapiens); assay: Inhibition of HSP90 in human HCT-116 cells assessed as reduction in phosphorylated Erk after 24 hrs by Western blot analysis; assay type: cell-based; details: dose 0.01-3 µM
# [11] = target: T1, Heat shock protein HSP90 (Homo sapiens); assay: Inhibition of HSP90 in human HCT-116 cells assessed as induction of HSP70 expression after 24 hrs by Western blot analysis; assay type: cell-based; details: dose 0.01-3 µM
# [12] = Half life in human liver microsomes at 1 uM preincubated for 5 mins followed by NADPH addition and measured up to 120 mins by LC-MS/MS analysis; assay type: ADME, Microsome; details: 2 h, time <=125 min
# [13] = Intrinsic clearance in human liver microsomes at 1 uM preincubated for 5 mins followed by NADPH addition and measured up to 120 mins by LC-MS/MS analysis; assay type: ADME, Microsome; details: 2 h, time <=125 min
# [14] = Metabolic stability in human liver microsomes assessed as parent compound remaining at 1 uM preincubated for 5 mins followed by NADPH addition and measured up to 120 mins by LC-MS/MS analysis; assay type: ADME, Microsome; details: 2 h, time <=125 min
# [15] = Tmax in rat at 50 mg/kg, po measured upto 24 hrs by LC-MS/MS analysis; assay type: ADME, organism-based; details: in vivo
# [16] = Cmax in rat at 50 mg/kg, po measured upto 24 hrs by LC-MS/MS analysis; assay type: ADME, organism-based; parameters: route oral, dose 50 mg/kg, time <=24; details: in vivo
# [17] = Half-life in rat at 50 mg/kg, po measured upto 24 hrs by LC-MS/MS analysis; assay type: ADME, organism-based; details: in vivo
# [18] = Half-life in rat at 10 mg/kg, iv measured upto 24 hrs by LC-MS/MS analysis; assay type: ADME, organism-based; details: in vivo
# [19] = Apparent clearance during terminal phase in rat at 50 mg/kg, po measured upto 24 hrs by LC-MS/MS analysis; assay type: ADME, organism-based; details: in vivo, read-out: CLz/F (converted)
# [20] = Apparent clearance during terminal phase in rat at 10 mg/kg, iv measured upto 24 hrs by LC-MS/MS analysis; assay type: ADME, organism-based; details: in vivo
# [21] = AUC (0 to t) in rat at 50 mg/kg, po measured upto 24 hrs by LC-MS/MS analysis; assay type: ADME, organism-based; parameters: route oral, dose 50 mg/kg, time <=24; details: in vivo
# [22] = AUC (0 to t) in rat at 10 mg/kg, iv measured upto 24 hrs by LC-MS/MS analysis; assay type: ADME, organism-based; parameters: route intravenous, dose 10 mg/kg, time <=24; details: in vivo
# [23] = Oral bioavailability in rat at 50 mg/kg measured upto 24 hrs by LC-MS/MS analysis; assay type: ADME, organism-based; details: in vivo
# [24] = Apparent volume of distribution in rat at 50 mg/kg, po measured upto 24 hrs by LC-MS/MS analysis; assay type: ADME, organism-based; details: in vivo
# [25] = Apparent volume of distribution in rat at 10 mg/kg, iv measured upto 24 hrs by LC-MS/MS analysis; assay type: ADME, organism-based; details: in vivo, read-out: Vz
# CYP2D6 = CYP2D6 (Homo sapiens, UniProt P10635); assay: Inhibition of CYP2D6 in human liver microsomes at 10 uM using dextromethorphan as substrate preincubated for 5 mins followed by NADPH addition and measured after 20 mins by LC-MS/MS analysis relative to control; assay type: ADME; details: probe dextromethorphan, time 25 min
# Chain of CYP2D6 (P10635 whole entry): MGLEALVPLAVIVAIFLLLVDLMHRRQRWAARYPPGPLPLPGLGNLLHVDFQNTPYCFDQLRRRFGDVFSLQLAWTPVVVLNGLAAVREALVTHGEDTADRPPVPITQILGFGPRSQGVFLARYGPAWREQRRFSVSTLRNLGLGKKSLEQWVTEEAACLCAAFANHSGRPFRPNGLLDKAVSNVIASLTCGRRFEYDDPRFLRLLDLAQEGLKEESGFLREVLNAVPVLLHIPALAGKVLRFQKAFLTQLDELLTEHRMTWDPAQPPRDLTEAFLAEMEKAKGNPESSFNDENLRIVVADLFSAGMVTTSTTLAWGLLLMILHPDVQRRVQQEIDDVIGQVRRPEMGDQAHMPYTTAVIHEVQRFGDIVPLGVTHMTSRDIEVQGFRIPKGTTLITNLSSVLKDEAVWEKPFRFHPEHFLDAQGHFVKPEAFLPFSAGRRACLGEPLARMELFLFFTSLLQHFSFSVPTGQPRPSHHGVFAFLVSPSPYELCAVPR
# Chain of CYP3A4 (P08684 whole entry): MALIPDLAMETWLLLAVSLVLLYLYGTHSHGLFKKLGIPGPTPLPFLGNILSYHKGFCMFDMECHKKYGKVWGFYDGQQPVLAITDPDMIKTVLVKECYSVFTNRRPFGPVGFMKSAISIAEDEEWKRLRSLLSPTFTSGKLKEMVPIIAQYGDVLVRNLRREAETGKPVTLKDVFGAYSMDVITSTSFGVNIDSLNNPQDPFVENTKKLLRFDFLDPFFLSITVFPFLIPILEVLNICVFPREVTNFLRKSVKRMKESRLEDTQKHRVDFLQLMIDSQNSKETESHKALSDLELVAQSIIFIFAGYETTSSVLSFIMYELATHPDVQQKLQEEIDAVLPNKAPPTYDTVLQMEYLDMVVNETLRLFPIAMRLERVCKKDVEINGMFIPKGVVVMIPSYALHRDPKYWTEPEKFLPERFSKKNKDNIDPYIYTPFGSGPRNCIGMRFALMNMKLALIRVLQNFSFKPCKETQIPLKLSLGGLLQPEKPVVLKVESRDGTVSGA
compound,measurement,setting,value
CC(=O)N1CCN(c2ccc(OCC3COC(Cn4ccnc4)(c4ccc(Cl)cc4Cl)O3)cc2)CC1 (centres undefined) [KETOCONAZOLE],"inhibition at 20 min, 10 µM",CYP3A4,72%
CC(C)c1cc(C(=O)N2Cc3ccc(CN4CCN(C)CC4)cc3C2)c(O)cc1O [ONALESPIB],pIC50,[1],7.89
same,Papp,[2],743 nm/s
same,pIC50,Endoplasmin,7.66
same,Ratio IC50,[3],1.7
same,pIC50,MDA-MB-231,7.42
same,pIC50,MDA-MB-468,7.18
same,pIC50,SK-BR-3,7.15
same,pIC50,T47D,7.62
same,pIC50,BT-474,7.49
same,pIC50,U2OS,7.17
same,pIC50,MKN-28,6.89
same,pIC50,A549,7.30
same,pIC50,HepG2,7.74
same,pIC50,K562,7.42
same,pIC50,MV4-11,7.96
same,pIC50,L02,4.93
same,T/C,HCT-116 [4],21%
same,pIC50,HCT-116 [5],7.15
same,pIC50,MCF7,7.70
CCCOc1nc(OCCOC)nc2c1CN(C(=O)c1cc(C(C)C)c(O)cc1O)CC2,logD,[6],3.59
same,pIC50,[1],7.44
same,Papp,[2],877 nm/s
same,solubility,[7],0.0736 mg/mL
same,pIC50,Endoplasmin,6.03
same,Ratio IC50,[3],25.8
same,pIC50,MDA-MB-231,6.91
same,pIC50,MDA-MB-468,6.86
same,pIC50,SK-BR-3,6.66
same,pIC50,T47D,6.75
same,pIC50,BT-474,6.93
same,pIC50,U2OS,6.77
same,pIC50,MKN-28,6.39
same,pIC50,A549,7.22
same,pIC50,HepG2,6.65
same,pIC50,K562,6.82
same,pIC50,MV4-11,7.74
same,pIC50,L02,4.51
same,inhibition,[8],Dose-dependent effect
same,inhibition,[9],Dose-dependent effect
same,inhibition,[10],Dose-dependent effect
same,inhibition,[11],Dose-dependent effect
same,t1/2,[12],1.15 h
same,CLint,[13],0.824 L/h/kg
same,Stabilty,[14],59.5%
same,pIC50,HCT-116 [5],6.92
same,pIC50,MCF7,7.40
COCCOc1ncc2c(n1)CCN(C(=O)c1cc(C(C)C)c(O)cc1O)C2,logD,[6],2.14
same,pIC50,[1],7.72
same,Papp,[2],556 nm/s
same,solubility,[7],0.14 mg/mL
same,pIC50,Endoplasmin,6.70
same,Ratio IC50,[3],10.4
same,pIC50,MDA-MB-231,6.89
same,pIC50,MDA-MB-468,6.76
same,pIC50,SK-BR-3,6.76
same,pIC50,T47D,6.74
same,pIC50,BT-474,6.84
same,pIC50,U2OS,6.97
same,pIC50,MKN-28,6.49
same,pIC50,A549,6.77
same,pIC50,HepG2,6.92
same,pIC50,K562,6.96
same,pIC50,MV4-11,7.51
same,pIC50,L02,4.56
same,inhibition,[8],Dose-dependent effect
same,inhibition,[9],Dose-dependent effect
same,inhibition,[10],Dose-dependent effect
same,inhibition,[11],Dose-dependent effect
same,Tmax,[15],0.5 h
same,Cmax,[16],0.0407 µg/mL
same,t1/2,[12],3.23 h
same,CLint,[13],0.293 L/h/kg
same,Stabilty,[14],81.5%
same,half-life,[17],7.4 h
same,half-life,[18],4.16 h
same,CL/F,[19],199 L/h/kg
same,CLz/F,[20],14.12 L/h/kg
same,AUC(0-t) at 24 h,[21],0.265 µg·h/mL
same,AUC(0-t) at 24 h,[22],0.757 µg·h/mL
same,bioavailability,[23],7%
same,Vz,[24],2072.05 L/kg
same,Vd,[25],86.6 L/kg
same,pIC50,HCT-116 [5],6.77
same,pIC50,MCF7,6.92
C=C[C@H]1C[N@@]2CC[C@H]1C[C@@H]2[C@@H](O)c1ccnc2ccc(OC)cc12 [QUINIDINE],"inhibition at 20 min, 10 µM",CYP2D6,89%
CCN(CC)c1nc(OCCOC)nc2c1CN(C(=O)c1cc(C(C)C)c(O)cc1O)CC2,logD,[6],3.08
same,pIC50,[1],6.99
same,Papp,[2],1070 nm/s
same,solubility,[7],0.0959 mg/mL
same,pIC50,Endoplasmin,5.96
same,Ratio IC50,[3],10.8
same,pIC50,HCT-116 [5],5.45
same,pIC50,MCF7,5.54

# Reference: ChEMBL document CHEMBL4706476, “Novel Tetrahydropyrido[4,3-d]pyrimidines as Potent Inhibitors of Chaperone Heat Shock Protein 90” (J Med Chem, 2016)
